Source: PubChem BioAssay (NCI)
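The compound was tested at five concentrations on cells cultured in 96-well plates, with a 48-hour exposure period. GI50: concentration for 50% inhibition of growth. The concentration for full growth arrest is given as TGI.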

How the values were obtained:
Test in all cases: DTP human tumour cell line panel, 48 h
[1] = system: CAKI-1 renal
[2] = system: ACHN renal
[3] = system: SNB-19 CNS
[4] = system: NCI-H460 lung
[5] = system: EKVX NSCLC
[6] = system: OVCAR-8 ovarian
[7] = system: SK-OV-3 ovarian
[8] = system: SK-MEL-28 melanoma
[9] = system: MDA-MB-231 breast
[10] = system: MDA-MB-435
[11] = system: U251 CNS
[12] = system: SW-620 colon
[13] = system: SK-MEL-2 melanoma
[14] = system: OVCAR-3 ovarian
[15] = system: TK-10 renal
[16] = system: SR leukemia
[17] = system: SNB-75 CNS
[18] = system: SN12C renal
[19] = system: SF-539 CNS
[20] = system: HL-60(TB) leukemia
[21] = system: RXF 393 renal
[22] = system: HCC-2998 colon
[23] = system: BT-549 breast
[24] = system: UO-31 renal
[25] = system: HCT-15 colon
[26] = system: MCF7 breast
[27] = system: NCI-H226 lung
[28] = system: SF-295 CNS
[29] = system: M14 melanoma
[30] = system: PC-3 prostate
[31] = system: CCRF-CEM leukemia
[32] = system: T-47D breast
[33] = system: NCI/ADR-RES ovarian
[34] = system: K-562 leukemia
[35] = system: HT29 colon
[36] = system: A498 renal
[37] = system: SK-MEL-5 melanoma
[38] = system: NCI-H23 lung
[39] = system: HS 578T breast
[40] = system: UACC-257 melanoma
[41] = system: DU-145 prostate
[42] = system: LOX IMVI melanoma
[43] = system: OVCAR-4 ovarian
[44] = system: HOP-92 NSCLC
[45] = system: NCI-H522 lung
[46] = system: 786-0 renal
[47] = system: HOP-62 NSCLC
[48] = system: A549 NSCLC
[49] = system: HCT-116 colon
[50] = system: IGROV1 ovarian
[51] = system: RPMI-8226 leukemia
[52] = system: COLO 205 colon
[53] = system: KM12 colon
[54] = system: UACC-62 melanoma
[55] = system: MALME-3M melanoma
[56] = system: SF-268 CNS
[57] = system: MOLT-4 leukemia
[58] = system: MDA-MB-468 breast
[59] = system: OVCAR-5 ovarian

C=C1CCC2C3(C)COC(c4cccc(F)c4)OC3CCC2(C)C1C/C=C1/C(=O)OCC1O (stereo not drawn)
GI50 [1]: 7.43 µM | TGI [1]: 20.2 µM | GI50 [2]: 4.48 µM | TGI [2]: 15.8 µM | GI50 [3]: 13.1 µM | TGI [3]: 25.9 µM | GI50 [4]: 4.03 µM | TGI [4]: 18.6 µM | GI50 [5]: 16.5 µM | TGI [5]: 30.8 µM | GI50 [6]: 1.86 µM | TGI [6]: 4.27 µM | GI50 [7]: 16.1 µM | TGI [7]: 29.9 µM | GI50 [8]: 5.58 µM | TGI [8]: 18 µM | GI50 [9]: 2.61 µM | TGI [9]: 7.25 µM | GI50 [10]: 2.61 µM | TGI [10]: 9.71 µM | GI50 [11]: 2.25 µM | TGI [11]: 6.24 µM | GI50 [12]: 1.48 µM | TGI [12]: 3.26 µM | GI50 [13]: 5.95 µM | TGI [13]: 19.1 µM | GI50 [14]: 1.87 µM | TGI [14]: 4.08 µM | GI50 [15]: 14.8 µM | TGI [15]: 28.2 µM | GI50 [16]: 3.52 µM | TGI [16]: 17.7 µM | GI50 [17]: 2.13 µM | TGI [17]: 10.8 µM | GI50 [18]: 2.95 µM | TGI [18]: 9.4 µM | GI50 [19]: 1.96 µM | TGI [19]: 3.81 µM | GI50 [20]: 1.98 µM | TGI [20]: 6.83 µM | GI50 [21]: 5.88 µM | TGI [21]: 19.6 µM | GI50 [22]: 8.09 µM | TGI [22]: 20.9 µM | GI50 [23]: 2.7 µM | TGI [23]: 7.09 µM | GI50 [24]: 5.14 µM | TGI [24]: 18.2 µM | GI50 [25]: 2.61 µM | TGI [25]: 8.15 µM | GI50 [26]: 2.25 µM | TGI [26]: 7.71 µM | GI50 [27]: 1.85 µM | TGI [27]: 3.87 µM | GI50 [28]: 3.87 µM | TGI [28]: 15.1 µM | GI50 [29]: 6.93 µM | TGI [29]: 21.3 µM | GI50 [30]: 3.3 µM | TGI [30]: 15.3 µM | GI50 [31]: 2.35 µM | TGI [31]: 7.34 µM | GI50 [32]: 3.61 µM | TGI [32]: 16 µM | GI50 [33]: 1.98 µM | TGI [33]: 4.08 µM | GI50 [34]: 3.39 µM | TGI [34]: 16.1 µM | GI50 [35]: 2.19 µM | TGI [35]: 4.75 µM | GI50 [36]: 14.1 µM | TGI [36]: 27.7 µM | GI50 [37]: 11 µM | TGI [37]: 23 µM | GI50 [38]: 11 µM | TGI [38]: 24.2 µM | GI50 [39]: 4.62 µM | TGI [39]: 39.7 µM | GI50 [40]: 5.51 µM | TGI [40]: 19.7 µM | GI50 [41]: 6.21 µM | TGI [41]: 18.5 µM | GI50 [42]: 1.67 µM | TGI [42]: 3.08 µM | GI50 [43]: 4.32 µM | TGI [43]: 18.3 µM | GI50 [44]: 6.48 µM | TGI [44]: 21.2 µM | GI50 [45]: 1.71 µM | TGI [45]: 4 µM | GI50 [46]: 2.69 µM | TGI [46]: 7.51 µM | GI50 [47]: 17.3 µM | TGI [47]: 31.6 µM | GI50 [48]: 7.04 µM | TGI [48]: 22.7 µM | GI50 [49]: 1.85 µM | TGI [49]: 3.62 µM | GI50 [50]: 10.3 µM | TGI [50]: 23.2 µM | GI50 [51]: 2.58 µM | TGI [51]: 6.78 µM | GI50 [52]: 4.09 µM | TGI [52]: 15.6 µM | GI50 [53]: 3.92 µM | TGI [53]: 14.8 µM | GI50 [54]: 4.68 µM | TGI [54]: 16.9 µM | GI50 [55]: 13.2 µM | TGI [55]: 26.2 µM | GI50 [56]: 6 µM | TGI [56]: 19.8 µM | GI50 [57]: 3.24 µM | TGI [57]: 12 µM | GI50 [58]: 2.11 µM | TGI [58]: 6.28 µM | GI50 [59]: 4.04 µM | TGI [59]: 15.9 µM
